Measurements reported in PubChem BioAssay (NCI).
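All cell lines were grown in 96-well plates and treated with compound for 48 hours. TGI: total growth inhibition.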

Tests used:
Assay in all cases: growth of human tumour cells (NCI), 48 h
K-562 leukemia = test system: K-562 leukemia
RPMI-8226 leukemia = test system: RPMI-8226 leukemia
SK-MEL-28 melanoma = test system: SK-MEL-28 melanoma
SK-MEL-5 melanoma = test system: SK-MEL-5 melanoma
RXF 393 renal = test system: RXF 393 renal
MDA-MB-231 breast = test system: MDA-MB-231 breast
NCI/ADR-RES ovarian = test system: NCI/ADR-RES ovarian
ACHN renal = test system: ACHN renal
SF-268 CNS = test system: SF-268 CNS
DU-145 prostate = test system: DU-145 prostate
HCT-116 colon = test system: HCT-116 colon
A549 NSCLC = test system: A549 NSCLC
SF-295 CNS = test system: SF-295 CNS
NCI-H460 lung = test system: NCI-H460 lung
MCF7 breast = test system: MCF7 breast

Row | SMILES | TGI (K-562 leukemia) | TGI (RPMI-8226 leukemia) | TGI (SK-MEL-28 melanoma) | TGI (SK-MEL-5 melanoma) | TGI (RXF 393 renal) | TGI (MDA-MB-231 breast) | TGI (NCI/ADR-RES ovarian) | TGI (ACHN renal) | TGI (SF-268 CNS) | TGI (DU-145 prostate) | TGI (HCT-116 colon) | TGI (A549 NSCLC) | TGI (SF-295 CNS) | TGI (NCI-H460 lung) | TGI (MCF7 breast)
1 | N#Cc1ccc(-c2nc3c(N)ncnc3o2)cc1 | > 100 µM | > 100 µM | > 100 µM | > 100 µM | > 100 µM | > 100 µM | > 100 µM | > 100 µM | > 100 µM | > 100 µM | > 100 µM | > 100 µM | > 100 µM | > 100 µM | > 100 µM
2 | CNc1ncccc1Nc1cc(=O)n2c3cccnc3n(C)c2c1 | > 100 µM | > 100 µM | > 100 µM | > 100 µM | 80.8 µM | > 100 µM | > 100 µM | > 100 µM | > 100 µM | > 100 µM | > 100 µM | > 100 µM | > 100 µM | > 100 µM | > 100 µM
3 | COc1ccc2nc(N/N=C/c3sccc3C)cc(C)c2c1 | > 100 µM | 45.3 µM | 50.5 µM | 25.5 µM | 62.6 µM | 16.1 µM | 55.1 µM | 56.2 µM | 47.8 µM | 44.5 µM | 23.8 µM | 56.9 µM | 21.7 µM | 28.2 µM | 55.5 µM
4 | Cc1cc(C)c2c(=O)cc(-c3cccc4ccccc34)[nH]c2n1 | > 100 µM | 29 µM | > 100 µM | 1.74 µM | > 37.1 µM | 18.6 µM | > 25.9 µM | > 100 µM | > 48 µM | > 100 µM | > 100 µM | > 100 µM | > 100 µM | > 100 µM | > 100 µM
5 | CCCCCCNCCc1cnc[nH]1 | > 100 µM | > 100 µM | > 100 µM | > 100 µM | > 100 µM | > 100 µM | > 100 µM | > 100 µM | > 100 µM | > 100 µM | > 100 µM | > 100 µM | > 100 µM | > 100 µM | > 100 µM
6 | OC(CNc1ccccn1)c1ccccc1 (stereo not given) | > 100 µM | > 100 µM | > 100 µM | > 100 µM | > 100 µM | > 100 µM | > 100 µM | > 100 µM | > 100 µM | > 100 µM | > 100 µM | > 100 µM | > 100 µM | > 100 µM | > 100 µM
7 | Cc1ccc(-n2[nH]nc(C(N)=O)c2=O)cc1 | > 100 µM | > 100 µM | > 100 µM | > 100 µM | > 100 µM | > 100 µM | > 100 µM | > 100 µM | > 100 µM | > 100 µM | > 100 µM | > 100 µM | > 100 µM | > 100 µM | > 100 µM
8 | CCCCC1(NN=C2CCCCC2)C(=O)N(c2ccccc2)N(c2ccccc2)C1=O | 64.9 µM | > 100 µM | > 100 µM | > 100 µM | > 100 µM | > 100 µM | > 100 µM | > 100 µM | > 100 µM | > 100 µM | > 100 µM | > 100 µM | > 100 µM | > 100 µM | > 100 µM
9 | NC(N)=NS(=O)(=O)c1ccc(NNc2c3ccccc3nc3ccccc23)cc1 | 30.9 µM | 44.9 µM | 29.2 µM | 22.3 µM | 36 µM | 37 µM | 90.7 µM | 23.1 µM | 34 µM | 21.3 µM | 32.8 µM | 45.4 µM | 73 µM | 23.4 µM | 16.8 µM
10 | ONC1=Nc2cc(Cl)ccc2C(=S)N2CSCC12 (stereo not given) | > 100 µM | > 100 µM | > 100 µM | > 100 µM | > 100 µM | > 100 µM | > 100 µM | > 100 µM | > 100 µM | > 100 µM | > 100 µM | > 100 µM | > 100 µM | > 100 µM | > 100 µM
11 | O=C1OC(CCCN2CCCCC2)(c2ccccc2)CC12CCCC2 (stereo not given) | > 96.3 µM | > 100 µM | 57 µM | 33.8 µM | > 100 µM | > 100 µM | > 100 µM | > 100 µM | > 100 µM | > 100 µM | > 100 µM | > 100 µM | > 100 µM | > 100 µM | > 100 µM
12 | C=C(CCOC)CCC1CCCCC(CN(C)C)C1=O (stereo not given) | > 100 µM | > 100 µM | > 100 µM | > 100 µM | > 100 µM | > 100 µM | > 100 µM | > 100 µM | > 100 µM | > 100 µM | > 100 µM | > 100 µM | > 100 µM | > 100 µM | > 100 µM
13 | O=c1[nH]c2cc(C(F)(F)F)ccc2nc1C(F)(F)F | > 100 µM | > 100 µM | > 100 µM | 35.7 µM | 58.2 µM | > 100 µM | > 100 µM | > 100 µM | > 100 µM | > 100 µM | > 100 µM | > 100 µM | > 100 µM | > 100 µM | > 100 µM
